Reference: PubChem BioAssay AID2060888 (Molecular Pharmacology Branch, DTP, NCI, 2025)
pIC50: −log10 of the molar value.

System: 695427-040-R-J1-PDC complex spheroid viability
Assay: Anticancer human tumor 695427-040-R-J1-PDC patient-derived colon adenocarcinoma cell line growth inhibition [RAS]
Conditions: for pIC50: curve of first compound; for viability, T/C: stronger effect = lower value; active means viability on the fitted dose curve at most 10% of control; inactive means the rest
Summary of the method: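 Agents were tested in combination matrices in half-log decrements from a top concentration at or near clinical Cmax (10 microM if undetermined). Targets were multi-cell spheroids of tumour lines plus HUVEC and MSC stromal cells.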

[1] = second compound 0.000949 µM, first compound 0.0316 µM
[2] = second compound 0.000949 µM, first compound 0.1 µM
[3] = second compound 0.000949 µM, first compound 0.316 µM
[4] = second compound 0.000949 µM, first compound 1 µM
[5] = second compound 0.003 µM, first compound 0.0316 µM
[6] = second compound 0.003 µM, first compound 0.1 µM
[7] = second compound 0.003 µM, first compound 0.316 µM
[8] = second compound 0.003 µM, first compound 1 µM
[9] = second compound 0.00949 µM, first compound 0.0316 µM
[10] = second compound 0.00949 µM, first compound 0.1 µM
[11] = second compound 0.00949 µM, first compound 0.316 µM
[12] = second compound 0.00949 µM, first compound 1 µM
[13] = second compound 0.03 µM, first compound 0.0316 µM
[14] = second compound 0.03 µM, first compound 0.1 µM
[15] = second compound 0.03 µM, first compound 0.316 µM
[16] = second compound 0.03 µM, first compound 1 µM
[17] = second compound 0.0949 µM, first compound 0.0316 µM
[18] = second compound 0.0949 µM, first compound 0.1 µM
[19] = second compound 0.0949 µM, first compound 0.316 µM
[20] = second compound 0.0949 µM, first compound 1 µM
[21] = second compound 0.3 µM, first compound 0.0316 µM
[22] = second compound 0.3 µM, first compound 0.1 µM
[23] = second compound 0.3 µM, first compound 0.316 µM
[24] = second compound 0.3 µM, first compound 1 µM
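Further: viability read after seven days of drug exposure.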
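Wherever viability, T/C is given: 100% = DMSO vehicle control viability.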

CC(Nc1ccc2c(c1)OCCn1cc(N3C(=O)OCC3C(F)F)nc1-2)C(N)=O (centres undefined) + CCn1c(-c2cc(N3CCN(C)CC3)cnc2C(C)OC)c2c3cc(ccc31)-c1csc(n1)CC(NC(=O)C1CC1C)C(=O)N1CCCC(N1)C(=O)OCC(C)(C)C2
6.17: pIC50 (second compound 0.003 µM)
> 7.50: pIC50 (second compound 0.03 µM) | pIC50 (second compound 0.0949 µM) | pIC50 (second compound 0.3 µM)
6.24: pIC50 (second compound 0.00949 µM)
inactive: viability, T/C [1] 61.4% | viability, T/C [2] 72.4% | viability, T/C [3] 69.7% | viability, T/C [4] 47.1% | viability, T/C (second compound 0.000949 µM, first compound 3.16 µM) 39.1% | viability, T/C (second compound 0.000949 µM, first compound 10 µM) 38% | viability, T/C [5] 100% | viability, T/C [6] 70.5% | viability, T/C [7] 59.5% | viability, T/C [8] 41.9% | viability, T/C (second compound 0.003 µM, first compound 3.16 µM) 45.6% | viability, T/C (second compound 0.003 µM, first compound 10 µM) 41.9% | viability, T/C [9] 86.2% | viability, T/C [10] 66.2% | viability, T/C [11] 54% | viability, T/C [12] 49.8% | viability, T/C (second compound 0.00949 µM, first compound 3.16 µM) 32.2% | viability, T/C (second compound 0.00949 µM, first compound 10 µM) 25.6% | viability, T/C [13] 45.6% | viability, T/C [14] 48.3% | viability, T/C [15] 32.2% | viability, T/C [16] 27.1% | viability, T/C (second compound 0.03 µM, first compound 3.16 µM) 26.6% | viability, T/C (second compound 0.03 µM, first compound 10 µM) 22.3% | viability, T/C [17] 35% | viability, T/C [18] 33.3% | viability, T/C [19] 31.4% | viability, T/C [20] 19.1% | viability, T/C (second compound 0.0949 µM, first compound 3.16 µM) 21.3% | viability, T/C (second compound 0.0949 µM, first compound 10 µM) 14.6% | viability, T/C [21] 36.1% | viability, T/C [22] 22.2% | viability, T/C [23] 24.3% | viability, T/C [24] 17.1% | viability, T/C (second compound 0.3 µM, first compound 3.16 µM) 14.9% | viability, T/C (second compound 0.3 µM, first compound 10 µM) 13.7%
6.07: pIC50 (second compound 0.000949 µM)

O=C(c1ccc(F)c(F)c1Nc1ccc(I)cc1F)N1CC(O)([C@@H]2CCCCN2)C1 + CCn1c(-c2cc(N3CCN(C)CC3)cnc2C(C)OC)c2c3cc(ccc31)-c1csc(n1)CC(NC(=O)C1CC1C)C(=O)N1CCCC(N1)C(=O)OCC(C)(C)C2
> 8.50: pIC50 (second compound 0.0949 µM) | pIC50 (second compound 0.3 µM)
7.13: pIC50 (second compound 0.000949 µM)
8.30: pIC50 (second compound 0.03 µM)
active: viability, T/C [4] 6.04% | viability, T/C [8] 7.31% | viability, T/C [12] 7.1% | viability, T/C [16] 5.7% | viability, T/C [18] 7.38% | viability, T/C [19] 6.14% | viability, T/C [20] 4.07% | viability, T/C [22] 6.62% | viability, T/C [23] 6.7% | viability, T/C [24] 5.28%
7.58: pIC50 (second compound 0.00949 µM)
inactive: viability, T/C (second compound 0.000949 µM, first compound 0.00316 µM) 79.7% | viability, T/C (second compound 0.000949 µM, first compound 0.01 µM) 75.5% | viability, T/C [1] 65.4% | viability, T/C [2] 45.2% | viability, T/C [3] 18.3% | viability, T/C (second compound 0.003 µM, first compound 0.00316 µM) 91.8% | viability, T/C (second compound 0.003 µM, first compound 0.01 µM) 74.2% | viability, T/C [5] 53.8% | viability, T/C [6] 40% | viability, T/C [7] 14.5% | viability, T/C (second compound 0.00949 µM, first compound 0.00316 µM) 73.1% | viability, T/C (second compound 0.00949 µM, first compound 0.01 µM) 63.4% | viability, T/C [9] 45.9% | viability, T/C [10] 32.7% | viability, T/C [11] 11.4% | viability, T/C (second compound 0.03 µM, first compound 0.00316 µM) 57.8% | viability, T/C (second compound 0.03 µM, first compound 0.01 µM) 37.1% | viability, T/C [13] 28.5% | viability, T/C [14] 18.5% | viability, T/C [15] 8.58% | viability, T/C (second compound 0.0949 µM, first compound 0.00316 µM) 28.6% | viability, T/C (second compound 0.0949 µM, first compound 0.01 µM) 27.8% | viability, T/C [17] 15.5% | viability, T/C (second compound 0.3 µM, first compound 0.00316 µM) 23.2% | viability, T/C (second compound 0.3 µM, first compound 0.01 µM) 17.1% | viability, T/C [21] 11.6%
7.37: pIC50 (second compound 0.003 µM)
